The results in this text go back to ChEMBL document CHEMBL3826919, “The discovery of novel and selective fatty acid binding protein 4 inhibitors by virtual screening and biological evaluation” (Bioorg Med Chem, 2016).

The target in assay [1] is T1, Fatty acid-binding protein, adipocyte (Homo sapiens, UniProt P15090). As to the kind of experiment: Binding affinity to His6-tagged FABP4 (unknown origin) expressed in Escherichia coli BL21(DE3) cells assessed as change in melting temperature at 50 uM after 30 mins by SYPRO orange dye based thermal stability shift assay.
Target sequence in this assay (P15090 2-132 limits assumed): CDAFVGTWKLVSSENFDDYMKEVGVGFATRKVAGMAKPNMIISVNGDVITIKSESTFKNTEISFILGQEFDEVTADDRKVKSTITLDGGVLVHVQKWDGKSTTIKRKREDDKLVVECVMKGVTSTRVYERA
Assay [2] deals with T1, Fatty acid-binding protein, adipocyte. As to the kind of experiment: Displacement of 1,8-ANS from His6-tagged FABP4 (unknown origin) expressed in Escherichia coli BL21(DE3) cells at 25 uM by fluorescence assay relative to control.
Target sequence in this assay (P15090 2-132 limits assumed): as above
Assay [3] has the same target. In words: Displacement of 1,8-ANS from His6-tagged FABP4 (unknown origin) expressed in Escherichia coli BL21(DE3) cells by fluorescence assay. The conditions noted are these: read-out: Ki(app).
Target sequence in this assay (P15090 whole entry): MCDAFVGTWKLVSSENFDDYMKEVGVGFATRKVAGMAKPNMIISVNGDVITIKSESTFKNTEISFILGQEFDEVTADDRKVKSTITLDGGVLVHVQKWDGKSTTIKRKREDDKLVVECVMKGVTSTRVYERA
For assay [4], the species on record is Homo sapiens. As to the kind of experiment: Displacement of 1,8-ANS from His6-tagged FABP4 (unknown origin) R106A mutant expressed in Escherichia coli BL21(DE3) cells at 25 uM by fluorescence assay relative to control.
For assay [5], the species on record is Homo sapiens. In words: Displacement of 1,8-ANS from His6-tagged FABP4 (unknown origin) R126A mutant expressed in Escherichia coli BL21(DE3) cells at 25 uM by fluorescence assay relative to control.
The target in assay [6] is T2, Fatty acid-binding protein, adipocyte (Mus musculus) (UniProt P04117).
T2 sequence (whole entry): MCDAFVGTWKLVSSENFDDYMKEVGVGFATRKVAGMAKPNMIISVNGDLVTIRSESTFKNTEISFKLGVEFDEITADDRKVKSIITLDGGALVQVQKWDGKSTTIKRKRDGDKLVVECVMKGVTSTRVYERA
In words: Inhibition of FABP4 in mouse RAW264.7 cells assessed as inhibition of LPS-induced TNFalpha production after 24 hrs by ELISA. The format is cell-based. Background: An ELISA detects its analyte on a solid surface through an enzyme-linked reagent.

Assay [7] addresses T2, Fatty acid-binding protein, adipocyte (Mus musculus). In words: Inhibition of FABP4 in mouse RAW264.7 cells assessed as inhibition of LPS-induced TNFalpha expression after 24 hrs by qPCR method. Type of assay: cell-based.
For assay [8] the target is unchanged. In words: Inhibition of FABP4 in mouse RAW264.7 cells assessed as inhibition of LPS-induced IL-6 expression after 24 hrs by qPCR method. Type of assay: cell-based. (In general: Quantitative PCR measures a nucleic acid by following its amplification.)

As to `CCCCC/C=C\C/C=C\CCCCCCCC(=O)O`, the ΔTm (as a rule, the change in melting temperature against a reference sample) in assay [1] is 1.1 °C.
Turning to `Cc1ccc(C(=O)/C(=C\Nc2cc(Cl)ccc2C(=O)O)c2nnnn2-c2ccc(C)cc2)cc1`, in assay [2], the inhibition (as a rule, the drop in the measured response relative to a control, in per cent) is -2.5%. The ΔTm in assay [1] is -2.6 °C.
For the compound `CCOC(=O)c1cnc2c(ccc3ccccc32)c1Nc1cccc(C(=O)O)c1`, the inhibition in assay [2] is 18.2%. Besides, the ΔTm in assay [1] amounted to 0.2 °C.
`CCOc1cc(/C=C2/SC(=S)N(CCC(=O)O)C2=O)ccc1O`: the inhibition in assay [2] was 63.2%. For the same compound, the Ki in assay [3] worked out at 2500 nM. In assay [1], the ΔTm was -1.8 °C.
As to `O=C(O)CC(Sc1nc2sc3c(c2c(=O)[nH]1)CCCC3)C(=O)O` (stereo not given), the ΔTm in assay [1] is 0.1 °C.
As to `Cc1cc(=O)n2c3c(cc(S(=O)(=O)NCc4ccc(C(=O)O)cc4)cc13)CC2`, in assay [1], the ΔTm came to 0.8 °C.
`O=c1cc(O)c2c(=O)n(N(c3ccccc3)c3ccccc3)c3c(c2o1)CCCC3`: the inhibition in assay [2] stood at 0.9%. In assay [1], the ΔTm was 0.3 °C.
Turning to `O=C(O)C1CCCCC1C(=O)Nc1ccccc1-c1ccccc1` (stereo not given), in assay [2], the inhibition was 27.7%. In addition, in assay [1], the ΔTm was determined as 3.9 °C.
As to `Cc1oc2ccc(NS(=O)(=O)c3ccccc3)cc2c1C(=O)O`, in assay [2], the inhibition stood at 9.5%. The ΔTm in assay [1] stood at 0.2 °C.
In the case of `COc1ccc(Cc2c(C)[nH]c3ccc(C(=O)O)cc23)cc1`, the ΔTm in assay [1] was 1.2 °C.
Turning to `CCc1ccccc1NC(=O)C(OC(=O)c1ccccc1)C(OC(=O)c1ccccc1)C(=O)O` (stereo not given), the inhibition in assay [2] amounted to 2.1%. The ΔTm in assay [1] was found to be 0.5 °C.
Regarding `CCCCCCCC/C=C\CCCCCCCC(=O)O`, the figures for the inhibition in assay [4], in assay [5] and in assay [2] were 69.4%, 48.8% and 82.1%, respectively. Also, in assay [1], the thermal shift (ΔTm) worked out at 3.3 °C.
For the compound `O=C(CSc1ncccc1C(=O)O)c1ccc(O)c(O)c1`, in assay [2], the inhibition is -0.2%. For the same compound, the ΔTm in assay [1] was -0.6 °C.
Regarding `CN(CC(=O)O)c1ncc(-c2nnnn2-c2ccccc2)c(-c2ccccc2Cl)n1`, the inhibition in assay [2] was found to be 0.5%. In assay [1], the ΔTm stood at 0 °C.
For `O=C(O)C(Cc1ccc(O)cc1)N1C(=O)c2c(Cl)c(Cl)c(Cl)c(Cl)c2C1=O` (stereo not given), the inhibition in assay [2] was 6%. Moreover, the thermal shift (ΔTm) in assay [1] is 0.5 °C.
`Cc1[nH]nc2c1C1(C(=O)N(C(C)C(=O)O)c3ccccc31)C(C#N)=C(N)O2` (stereo not given): the inhibition in assay [2] was 6%. Moreover, the ΔTm in assay [1] came to 0.1 °C.
In the case of `O=C(O)c1cccc(-c2ccc(CNC(Cc3c[nH]c4ccccc34)C(=O)O)o2)c1` (stereo not given), in assay [1], the ΔTm is -2.4 °C.
Take `Cc1ccc(-n2c(SCC(=O)Nc3c(C)cccc3C)nc(O)cc2=O)cc1`: the inhibition in assay [2] is -3%. In addition, the ΔTm in assay [1] is 0 °C.
For the compound `O=C(O)c1cccc2c1NC(c1ccccc1[N+](=O)[O-])C1CC(Sc3ccccc3[N+](=O)[O-])C(Cl)C21` (stereo not given), the inhibition in assay [2] is 41.5%. In addition, in assay [3], the Ki worked out at 5400 nM. Further, the ΔTm in assay [1] is -0.2 °C.
With `CCc1c(-c2ccccc2)c(-c2ccccc2)nn1-c1ccccc1-c1cccc(OCC(=O)O)c1`, the inhibition result in assay [6], in assay [7] and in assay [8] was “Dose-dependent effect” in each case. For the same compound, the ΔTm in assay [1] turned out to be 10.6 °C.
`COc1ccc(-c2ccc(C#N)c(SCC(=O)NCC(=O)O)n2)cc1`: the ΔTm in assay [1] was -0.1 °C.
Regarding `COc1ccc(C2C(C(=O)c3ccc(C)cc3)=C(O)C(=O)N2CCCC(=O)O)cc1OC` (stereo not given), in assay [2], the inhibition stood at 16.6%. Besides, the ΔTm in assay [1] was determined as 1 °C.
As for `O=C(O)c1ccc(S(=O)(=O)Nc2ccc(O)c(Sc3nc4ccccc4s3)c2)cc1`, the inhibition in assay [2] was 7.2%. Also, in assay [1], the ΔTm was found to be 0.1 °C.
Turning to `O=C(O)CSc1cc(NS(=O)(=O)c2ccc(Cl)cc2)c2ccccc2c1O`, the inhibition in assay [2] was 70%. The Ki in assay [3] is 2300 nM. Further, the ΔTm in assay [1] is -2.8 °C.
Consider `O=C(Nc1cc(Cl)ccc1Cl)/C(=N\Nc1ccccc1C(=O)O)C(=O)c1ccccc1`, for which the inhibition in assay [2] worked out at 39.5%. Moreover, the Ki in assay [3] was 10300 nM. Also, the ΔTm in assay [1] was determined as 0.3 °C.
Consider `Cc1nc(=O)c(-c2ccccc2)c(C)n1CCCCCC(=O)O`, for which the inhibition in assay [2] is -3.2%. Also, in assay [1], the ΔTm was found to be 0 °C.
As for `Cc1ccc(C(C[N+](=O)[O-])c2c(-c3ccccc3C)n[nH]c2O)cc1` (stereo not given), the inhibition in assay [2] amounted to 5.8%. Also, the ΔTm in assay [1] was -3.7 °C.
In the case of `O=C(O)CCC(=O)Nc1ccccc1C(=O)N1CCCCCC1`, in assay [2], the inhibition turned out to be 3.4%. In addition, in assay [1], the ΔTm is -0.1 °C.
`Cc1ccc(C)c(NC(=O)C2CCC(C)(C(=O)O)C2(C)C)c1` (stereo not given): the inhibition in assay [2] amounted to 0.5%. In assay [1], the ΔTm amounted to 0.1 °C.
Consider `COc1ccccc1-c1cc(C(F)(F)F)nc(S(=O)(=O)CCCC(=O)O)n1`, for which, in assay [1], the ΔTm was -9.1 °C.
Still for that read-out and setting: with `CC(Sc1nc(-c2ccccc2)c(-c2ccccc2)[nH]1)C(=O)O` (stereo not given) the figure was 3.1 °C.
With `O=C(O)C1C2CC=CC2c2cc(Cl)cc3c2N1CC1CC=CC31` (stereo not given), the Ki in assay [3] amounted to 690 nM. For the same compound, the ΔTm in assay [1] is 7.9 °C.
On to `CCCCCCCn1c(SCC(=O)O)nc2c1c(=O)[nH]c(=O)n2C`, for which the inhibition in assay [2] came to 13%. Moreover, the ΔTm in assay [1] turned out to be 2 °C.
In the case of `O=C(O)C1C2CC=CC2c2c3c(cc4ccccc24)C2C=CCC2CN31` (stereo not given), the ΔTm in assay [1] worked out at 7.5 °C.
Take `COc1ccc(S(=O)(=O)Nc2ccccc2C(=O)O)c2ccccc12`: the inhibition in assay [2] was found to be 20.3%. Further, in assay [1], the ΔTm stood at 1.2 °C.
In the case of `O=C(O)CCC(=O)Nc1sc2c(c1C(=O)Nc1cccc3ccccc13)CCCCC2`, in assay [2], the inhibition was determined as 0.4%. For the same compound, in assay [1], the ΔTm was 0.2 °C.
`Cc1cc2c3c(c1)C1C=CCC1C(C(=O)O)N3CC1CC=CC21` (stereo not given): the inhibition result in assay [6], in assay [7] and in assay [8] was “Dose-dependent effect” each time. In addition, in assay [3], the Ki is 380 nM. Moreover, in assay [1], the ΔTm worked out at 6.2 °C.
For `O=C(O)C1C2CC(Sc3ccccc3[N+](=O)[O-])C(Cl)C2c2cccc3c2N1CC1CC=CC31` (stereo not given), in assay [2], the inhibition was 60.2%. Also, the Ki in assay [3] amounted to 3100 nM. In addition, the ΔTm in assay [1] is 3.5 °C.
For `Cc1cc(C)c2c3c1C1C=CCC1CN3C(C(=O)O)C1CC=CC21` (stereo not given), the Ki in assay [3] was 610 nM. Moreover, in assay [1], the ΔTm turned out to be 5.8 °C.
As to `CC(=O)NC(Cc1ccc(O)cc1)C(=O)O` (stereo not given), in assay [2], the inhibition is -3.6%. In addition, in assay [1], the ΔTm was -0.1 °C.
Regarding `COc1ccc(CN(C(=O)COc2cc(C)ccc2C(C)C)c2ccccc2C(=O)O)cc1`, the inhibition in assay [2] turned out to be 18.5%. Further, the ΔTm in assay [1] was 0.1 °C.
With `Cc1ccc(/N=C2/NC(=O)/C(=C/c3cccn3-c3cccc(C(=O)O)c3)S2)cc1C`, the inhibition in assay [2] is 36.8%. The Ki in assay [3] amounted to 3600 nM. Besides, in assay [1], the ΔTm is -9 °C.
Regarding `COc1ccccc1N1CCN(C(=O)c2ccccc2NC(=O)C2CCCCC2C(=O)O)CC1` (stereo not given), the inhibition in assay [2] is -5%. In addition, in assay [1], the ΔTm was found to be 0.1 °C.
With `C=C1C(N(CCc2ccc(OC)cc2)C(=O)CCC(=O)O)CC(=O)N1c1ccccc1` (stereo not given), in assay [2], the inhibition came to 1%. In addition, in assay [1], the ΔTm was -0.1 °C.
Take `CCCOc1cc(S(=O)(=O)Nc2ccc(C(=O)O)cc2)ccc1Cl`: the inhibition in assay [2] turned out to be 31.4%. In addition, in assay [3], the Ki came to 4300 nM. Further, the ΔTm in assay [1] was 0.1 °C.
In the case of `COc1cccc(-c2[nH]c3ccccc3c2C2c3ccccc3C(=O)N2CCC(=O)O)c1` (stereo not given), in assay [2], the inhibition came to 6.3%. Moreover, the ΔTm in assay [1] was 1.1 °C.
As for `O=C(O)c1ccccc1C(=O)N(Cc1ccccc1)Cc1ccccc1`, in assay [2], the inhibition was determined as 4.9%. In addition, the ΔTm in assay [1] was 1 °C.
Regarding `O=C(O)COc1ccc(Br)cc1/C=C1\S/C(=N\c2ccc(Cl)cc2)NC1=O`, the ΔTm in assay [1] is -0.6 °C.
Regarding `CCCN1C2=C(C(=O)CC(C)(C)C2)C(c2cc(Cl)ccc2OCC(=O)O)C2=C1CC(C)(C)CC2=O`, the ΔTm in assay [1] is -0.2 °C.
Turning to `O=C(O)CC/C(=N/NC(=O)c1c[nH]c2ccccc12)c1ccccc1`, the inhibition in assay [2] was -0.8%. Further, the ΔTm in assay [1] is -0.8 °C.
Regarding `CCCCCC(=O)N(CN1C(=O)c2ccccc2C1=O)c1cccc(C(=O)O)c1`, in assay [2], the inhibition is -1.9%. In assay [1], the ΔTm was -0.2 °C.
On to `CN1C(=O)/C(=N/c2cccc(C(=O)O)c2)S/C1=C\c1cccs1`, for which, in assay [2], the inhibition stood at 25.8%. The ΔTm in assay [1] was -0.3 °C.
With `O=C(O)CCSc1nc2ccccc2n1Cc1ccccc1`, the inhibition in assay [2] stood at 27.9%. For the same compound, in assay [1], the ΔTm came out at 2.8 °C.
As for `Cc1oc2c(cc(NS(=O)(=O)c3ccc(Cl)cc3)c3ccccc32)c1C(=O)O`, the inhibition in assay [2] was found to be 30.2%. Besides, the ΔTm in assay [1] is 2.8 °C.
With `Cc1ccc(C(=O)C2=C(O)C(=O)N(CCCC(=O)O)C2c2ccccc2F)cc1` (stereo not given), the inhibition in assay [2] was found to be 17.1%. In assay [1], the ΔTm is 0 °C.
For `Cc1ccc(S(=O)(=O)NC(CC(=O)O)c2ccccc2)c(C)c1` (stereo not given), in assay [2], the inhibition is -0.3%. Besides, the ΔTm in assay [1] is 0.2 °C.
